The test system of one test is purified human Hsp90. Description: Binding Assay: fluorescence polarization with BODIPY-labeled geldanamycin. Particulars: 5 μM compound, BODIPY-GM 10 nM, Hsp90 30 nM. The procedure: Compound binding to purified Hsp90 was monitored using BODIPY-labeled geldanamycin (BODIPY-GM) in a fluorescence polarization assay adapted from Kim et al. (Journal of Biomolecular Screening 2004, 9(5):375-381). Compound dilutions (in 100% DMSO) were added to black-bottom 96-well plates (Greiner; 2% DMSO final), and equal volumes of BODIPY-GM (10 nM final) and purified human Hsp90 (Stressgen, SPP-770; 30 nM final) in assay buffer (20 mM HEPES-KOH pH 7.3, 50 mM KCl, 5 mM MgCl2, 20 mM Na2MoO4, 0.01% NP-40, 0.1 mg/mL bovine gamma globulin [Invitrogen, P2045], 2 mM DTT) were added sequentially to yield a final volume of 50 microliters. Plates were incubated overnight at room temperature. Parallel and perpendicular fluorescence measurements were read (LJL BioSystems Analyst AD plate reader) with excitation/emission wavelengths of 485/530 nm. Background fluorescence (buffer only) was subtracted, and fluorescence polarization (FP) values, expressed in mP units, were calculated from parallel and perpendicular fluorescence readings as follows: FP=(parallel−perpendicular)/(parallel+perpendicular)*1000
Percent inhibition was calculated by normalizing the FP values to those obtained in parallel reactions containing DMSO and subtracting these normalized values from 100%. Intrinsic compound fluorescence was independently monitored, and FP data points confounded by compound fluorescence were excluded from the analysis.
In general terms: Fluorescence polarisation rises when a labelled molecule tumbles more slowly, as on binding a larger partner.
The term % Inhibition denotes the percentage by which the read-out fell short of the control. High values mean a strong effect, low ones a weak effect. For the molecule `CCOC(=O)[C@@H]1C[C@H](CCn2cnc(N)c3nc(Sc4cc5c(cc4Br)OCO5)nc2-3)CCN1C(=O)OC(C)(C)C` (relative stereo) [Example 423, 1-tert-Butyl 2-ethyl cis-4-(2-{6-amino-8-[(6-bromo-1,3-benzodioxol-5-yl)thio]-3H-purin-3-yl}ethyl)piperidine-1,2-dicarboxylate], the “% Inhibition at 5 μM Compound Concentration” value (shortened to “% Inhibition”) amounted to 0%.
Same read-out and setting: with `CC(C)[C@@H]1C[C@H](CCn2cnc(N)c3nc(Sc4cc5c(cc4Br)OCO5)nc2-3)CCN1C(=O)OC(C)(C)C` (relative stereo) [Example 430, tert-Butyl cis-4-(2-{6-amino-8-[(6-bromo-1,3-benzodioxol-5-yl)thio]-3H-purin-3-yl}ethyl)-2-isopropylpiperidine-1-carboxylate] the figure was 15%; with `CCOC(=O)[C@@H]1C[C@H](CCn2cnc(N)c3nc(Sc4cc5c(cc4Br)OCO5)nc2-3)CCN1` (relative stereo) [Example 482, Ethyl cis-4-(2-{6-amino-8-[(6-bromo-1,3-benzodioxol-5-yl)thio]-3 H-purin-3-yl}ethyl)piperidine-2-carboxylate], 0.0%; with `COc1ccc(OC)c(Sc2nc3c(N)ncnc3n2CCCc2ccccc2)c1` [Example 3, 8-(2,5-Dimethoxy-phenylsulfanyl)-9-(3-phenyl-propyl)-9H-purin-6-ylamine], 36%.
Take `Nc1ncnc2c1nc(Sc1ccc3c(c1)OCO3)n2CCc1ccccc1` [Example 4, 8-(Benzo[1,3]dioxol-5-ylsulfanyl)-9-phenethyl-9H-purin-6-ylamine]: the “% Inhibition” value stood at 75%.
On to `Nc1ncn(CCc2ccccc2)c2nc(Sc3ccc4c(c3)OCO4)nc1-2` [Example 5, 8-(benzo[1,3]dioxol-5-ylsulfanyl)-3-phenethyl-3H-purin-6-ylamine], for which the “% Inhibition” value was 8%.
In the case of `Nc1ncnc2c1nc(Sc1ccc3c(c1)OCO3)n2CCCc1ccccc1` [Example 6, 8-(Benzo[1,3]dioxol-5-ylsulfanyl)-9-(3-phenyl-propyl)-9H-purin-6-ylamine], the “% Inhibition” value is reported as 66%.
As for `Nc1ncnc2c1nc(Sc1ccc3c(c1)OCO3)n2CCc1ccc([N+](=O)[O-])cc1` [Example 7, 8-(Benzo[1,3]dioxol-5-ylsulfanyl)-9-[2-(4-nitro-phenyl)-ethyl]-9H-purin-6-ylamine], the “% Inhibition” value is 22%.
Still for that read-out and setting: with `COc1ccc(Sc2nc3c(N)ncn(CCc4ccccc4)c-3n2)c(OC)c1` [Example 16, 8-(2,4-dimethoxy-phenylsulfanyl)-3-phenethyl-3H-purin-6-ylamine] the figure was 6%; with `Nc1ncn(CCc2ccccc2)c2nc(Sc3ccc(Cl)cc3)nc1-2` [Example 18, 8-(4-chloro-phenylsulfanyl)-3-phenethyl-3H-purin-6-ylamine], 0%.
Turning to `N#Cc1ccc(Sc2nc3c(N)ncn(CCc4ccccc4)c-3n2)cc1` [Example 20, 4-(6-amino-3-phenethyl-3H-purin-8-ylsulfanyl)-benzonitrile], the “% Inhibition” value came out at 0%.

Staying with this test, now noted: BODIPY-GM 10 nM, Hsp90 30 nM.
A word on the IC50: it is the concentration needed to halve the response being measured. The low end stands for higher potency, the high end for lower potency. As for `CCOC(=O)[C@@H]1C[C@H](CCn2c(Sc3cc4c(cc3Br)OCO4)nc3c(N)ncnc32)CCN1C(=O)OC(C)(C)C` (relative stereo) [Example 422, 1-tert-Butyl 2-ethyl cis-4-(2-{6-amino-8-[(6-bromo-1,3-benzodioxol-5-yl)thio]-9H-purin-9-yl}ethyl)piperidine-1,2-dicarboxylate], the concentration for half-maximal inhibition (IC50) was greater than 3 µM.
Molecule `CC(C)[C@H]1C[C@H](CCn2c(Sc3cc4c(cc3Br)OCO4)nc3c(N)ncnc32)CCN1C(=O)OC(C)(C)C` (relative stereo) [Example 428, tert-Butyl trans-4-(2-{6-amino-8-[(6-bromo-1,3-benzodioxol-5-yl)thio]-9H-purin-9-yl}ethyl)-2-isopropylpiperidine-1-carboxylate] displayed an IC50 greater than 8 µM.
The molecule `CC(C)[C@@H]1C[C@H](CCn2c(Sc3cc4c(cc3Br)OCO4)nc3c(N)ncnc32)CCN1C(=O)OC(C)(C)C` (relative stereo) [Example 429, tert-Butyl cis-4-(2-{6-amino-8-[(6-bromo-1,3-benzodioxol-5-yl)thio]-9H-purin-9-yl}ethyl)-2-isopropylpiperidine-1-carboxylate] came in with a 50% inhibitory concentration (IC50) of 3.8 µM.
Take `CC(C)[C@H]1C[C@H](CCn2c(Sc3cc4c(cc3Br)OCO4)nc3c(N)ncnc32)CCN1` (relative stereo) [Example 479, 8-[(6-bromo-1,3-benzodioxol-5-yl)thio]-9-{2-[trans-2-isopropylpiperidin-4-yl]ethyl}-9 H-purin-6-amine]: the IC50 turned out to be 0.199 µM.
Regarding `CC(C)[C@@H]1C[C@H](CCn2c(Sc3cc4c(cc3Br)OCO4)nc3c(N)ncnc32)CCN1` (relative stereo) [Example 480, 8-[(6-bromo-1,3-benzodioxol-5-yl)thio]-9-{2-[cis-2-isopropylpiperidin-4-yl]ethyl}-9 H-purin-6-amine], the IC50 amounted to 0.16 µM.
Molecule `COc1ccc(OC)c(Sc2nc3c(N)ncnc3n2CCc2ccccc2)c1` [Example 1, 8-(2,5-Dimethoxy-phenylsulfanyl)-9-phenethyl-9H-purin-6-ylamine] showed a concentration for half-maximal inhibition (IC50) of 0.34 µM.
As for `COc1ccc(OC)c(Sc2nc3c(N)ncn(CCc4ccccc4)c-3n2)c1` [Example 2, 8-(2,5-dimethoxy-phenylsulfanyl)-3-phenethyl-3H-purin-6-ylamine], the half-inhibitory concentration (IC50) stood at 3.47 µM. Against the preceding molecule, the IC50 is about 10-fold higher.
For `Nc1ncnc2c1nc(Sc1ccc3c(c1)OCO3)n2CCc1ccccc1` [Example 4, 8-(Benzo[1,3]dioxol-5-ylsulfanyl)-9-phenethyl-9H-purin-6-ylamine], the IC50 is 0.65 µM.
Take `Nc1ncnc2c1nc(Sc1ccc3c(c1)OCO3)n2CCCc1ccccc1` [Example 6, 8-(Benzo[1,3]dioxol-5-ylsulfanyl)-9-(3-phenyl-propyl)-9H-purin-6-ylamine]: the half-maximal inhibitory concentration (IC50) is 1.06 µM.
Turning to `COc1ccc(OC)c(Sc2nc3c(N)ncnc3n2CCc2ccc([N+](=O)[O-])cc2)c1` [Example 8, 8-(2,5-Dimethoxy-phenylsulfanyl)-9-[2-(4-nitro-phenyl)-ethyl]-9H-purin-6-ylamine], the IC50 was 18 µM.
Regarding `COc1ccc(OC)c(Sc2nc3c(N)ncnc3n2CCc2ccc(F)cc2)c1` [Example 9, 8-(2,5-Dimethoxy-phenylsulfanyl)-9-[2-(4-fluoro-phenyl)-ethyl]-9H-purin-6-ylamine], the IC50 is 1 µM. Compared with the last molecule, the IC50 is about 18-fold lower.
`COc1ccc(OC)c(Sc2nc3c(N)ncn(CCc4ccc(F)cc4)c-3n2)c1` [Example 10, 8-(2,5-dimethoxy-phenylsulfanyl)-3-[2-(4-fluoro-phenyl)-ethyl]-3H-purin-6-ylamine] displayed a 50% inhibitory concentration (IC50) greater than 50 µM.
`Nc1ncnc2c1nc(Sc1ccc3c(c1)OCO3)n2CCc1ccc(F)cc1` [Example 11, 8-(Benzo[1,3]dioxol-5-ylsulfanyl)-9-[2-(4-fluoro-phenyl)-ethyl]-9H-purin-6-ylamine] came in with an IC50 of 0.6 µM.
Still for that read-out and setting: with `Nc1ncn(CCc2ccc(F)cc2)c2nc(Sc3ccc4c(c3)OCO4)nc1-2` [Example 12, 8-(benzo[1,3]dioxol-5-ylsulfanyl)-3-[2-(4-fluoro-phenyl)-ethyl]-3H-purin-6-ylamine] the figure was greater than 10 µM; with `Nc1ncnc2c1nc(Sc1cc3c(cc1Br)OCO3)n2CCc1ccccc1` [Example 13, 8-(6-Bromo-benzo[1,3]dioxol-5-ylsulfanyl)-9-phenethyl-9H-purin-6-ylamine], 0.045 µM; with `Nc1ncn(CCc2ccccc2)c2nc(Sc3cc4c(cc3Br)OCO4)nc1-2` [Example 14, 8-(6-bromo-benzo[1,3]dioxol-5-ylsulfanyl)-3-phenethyl-3H-purin-6-ylamine], 5 µM.
`COc1ccc(Sc2nc3c(N)ncnc3n2CCc2ccccc2)c(OC)c1` [Example 15, 8-(2,4-Dimethoxy-phenylsulfanyl)-9-phenethyl-9H-purin-6-ylamine] came in with a half-maximal inhibitory concentration (IC50) of 6.5 µM.
Molecule `Nc1ncnc2c1nc(S(=O)(=O)c1ccc(Cl)cc1)n2CCc1ccccc1` [Example 17, 8-(4-Chloro-phenylsulfonyl)-9-phenethyl-9H-purin-6-ylamine] displayed a 50% inhibitory concentration (IC50) greater than 10 µM.
As to `N#Cc1ccc(Sc2nc3c(N)ncnc3n2CCc2ccccc2)cc1` [Example 19, 4-(6-Amino-9-phenethyl-9H-purin-8-ylsulfanyl)-benzonitrile], the IC50 is greater than 10 µM.
Regarding `N#Cc1ccc(Sc2nc3c(N)ncn(CCc4ccccc4)c-3n2)cc1` [Example 20, 4-(6-amino-3-phenethyl-3H-purin-8-ylsulfanyl)-benzonitrile], the concentration for half-maximal inhibition (IC50) was greater than 10 µM.
Consider `COc1ccc(OC)c(Sc2nc3c(N)ncnc3n2CCc2ccc(OC)c(OC)c2)c1` [Example 21, 9-[2-(3,4-Dimethoxy-phenyl)-ethyl]-8-(2,5-dimethoxy-phenylsulfanyl)-9H-purin-6-ylamine], for which the IC50 is greater than 10 µM.
Molecule `COc1ccc(OC)c(Sc2nc3c(N)ncn(CCc4ccc(OC)c(OC)c4)c-3n2)c1` [Example 22, 3-[2-(3,4-dimethoxy-phenyl)-ethyl]-8-(2,5-dimethoxy-phenylsulfanyl)-3H-purin-6-ylamine] had a half-inhibitory concentration (IC50) greater than 10 µM.
As to `COc1ccc(OC)c(Sc2nc3c(N)ncnc3n2CCc2ccc(C)cc2)c1` [Example 23, 8-(2,5-Dimethoxy-phenylsulfanyl)-9-(2-p-tolyl-ethyl)-9H-purin-6-ylamine], the half-maximal inhibitory concentration (IC50) is greater than 10 µM.
Take `COc1ccc(OC)c(Sc2nc3c(N)ncn(CCc4ccc(C)cc4)c-3n2)c1` [Example 24, 8-(2,5-dimethoxy-phenylsulfanyl)-3-(2-p-tolyl-ethyl)-3H-purin-6-ylamine]: the IC50 was greater than 10 µM.
Still for that read-out and setting: with `COc1ccc(OC)c(Sc2nc3c(N)ncnc3n2CCc2ccccc2Cl)c1` [Example 25, 9-[2-(2-Chloro-phenyl)-ethyl]-8-(2,5-dimethoxy-phenylsulfanyl)-9H-purin-6-ylamine] the figure was 0.041 µM.

Values taken from patent US7595401B2, “Therapeutic compounds and their use in cancer” (Myriad Pharmaceuticals, Inc., priority 2006, dated 2009).
